# Measured values from patent publication US4812481A, “Synergistic combination of amantadiene and selegiline” (Degussa Aktiengesellschaft, priority 1986, dated 1989).
# Legend:
# [1] = system: Parkinson's disease; assay: anti-Parkinsonism action in human (Webster scale, disability score); assay type: in vivo
# Excerpt: The effect of the anti-Parkinsonism action is established, for example, by Webster, D. D., Med. Treat. (N.Y.) 5, pp. 257-282, 1968. Here, the different symptoms are assigned and weighted after application of the monosubstance amantadine or the combination:
# 1. Slowed motor response of the hands
# 2. Rigor (elevation of the muscle tone)
# 4. Simultaneous swinging of the upper extremities
# 10. Ability to stand alone.
# An anti-Parkinsonism action is present if the sum of the values resulting from the Webster scale (the so-called disability score) is lower than the initial value without medication (<30). The synergistic effect of the combination results from the following: When selegiline is used in addition, the sum of the disability score is lower than that which would have been achieved if only amantadine had been used and/or the duration of the effectiveness of amantadine is extended.
# [2] = system: akinetic crisis; assay: improvement of the akinetic crisis (critical deteriorations of the Morbus Parkinson); assay type: in vivo, human; conditions: intravenous amantadine, without or with addition of selegiline
Compound,"anti-Parkinsonism action ([1]; Parkinson's disease, compared to pure amantadine)",improvement of the symptoms of Parkinson (Webster sums) ([1]; early stages of Morbus Parkinsonism),onset of improvement of the akinetic crisis [2]
"C#CCN(C)[C@H](C)Cc1ccccc1 [selegiline, N-(1-phenyl-2-propyl)-N-methyl-2-propinylamine]",almost no anti-Parkinsonism action,does not show sufficient effect in regard to improving the symptoms of the Parkinson symptomatics,–
"NC12CC3CC(CC(C3)C1)C2 [amantadine, 1-amino-adamantane]",–,–,relatively slowly setting in improvement of the akinetic crisis
